Reference: patent US11117856B2, “Polyamine compounds targeting the efflux pumps of multi-drug resistant bacterial pathogens and methods of using the same” (UNIVERSITY OF SOUTH FLORIDA, priority 2016, dated 2021)
Where “and” joins values, the source holds several entries; their conditions need not be identical. Equal values may be shown once.

Columns and labels:
[1] = tested on: tetracycline resistant strain of P. aeruginosa; assay: Checkerboard potentiation assay with tetracycline; format: cell-based; conditions: for FP* (Fold Potentiation, EC50): EC50 tetracycline with no TPI/with TPI; for FP* (Fold Potentiation, EC50) / FP^# (Fold Potentiation, EC90): 25 μg mL^−1 TPI; for FP^# (Fold Potentiation, EC90): EC90 tetracycline with no TPI/with TPI; for FP*^c (Fold Potentiation, EC50): Table 1, tetracycline EC50; for FP^#c (Fold Potentiation, EC90): Table 1, tetracycline EC90; for TPI (inhibitory concentration of the polyamines alone to produce EC values): polyamine alone, no tetracycline, 25 μg mL^−1 highest concentration tested
Method: The bacterial strains used in this study are multi-drug resistant clinical isolates that have previously been described (TABLE 2) (Fleeman, et al. J. Med. Chem. 2015, 58, 3340-3355). Organisms were grown in tryptic soy broth (TSB) for overnight cultures, and cation adjusted Mueller Hinton broth (CA-MH II) was used for experimental procedures. All incubations were performed at 37° C.
Scaffold ranking library samples and individual polyamines were screened using checkerboard inhibitory assays to assess the potentiation of tetracycline and chloramphenicol. The test utilized a 96-well plate microtiter assay where the concentration of the scaffold or individual polyamine was decreased from 25 μg mL^−1 to 0.8 μg mL^−1 (average molarity of 65 μM to 4 μM) along the rows, and the concentration of tetracycline or chloramphenicol was increased from 0.4 μM to 100 μM across the columns. Plates were incubated statically at 37° C. for 20 hours, and the optical density (OD600) was determined using a Synergy 2 plate reader (Biotek). Potentiation modeling (detailed below) was performed to determine fold change in the 50% and 90% effective concentration of tetracycline or chloramphenicol.
Potentiation was quantified using a mathematical model developed by our group to assess the ability of library samples and individual compounds to effectively enhance the activity of tetracycline or chloramphenicol (Hoel, D. G. Statistical Aspects of Chemical Mixtures. Methods for assessing the effects of mixtures of chemicals. 1987, New York). […] In this way, only libraries and compounds that potentiated tetracycline or chloramphenicol activity were pursued. The model is based on the following equation for modeling the percentage activity of a mixture of two agents with independent action (Hoel, et al. Statistical Aspects of Chemical Mixtures. Methods for assessing the effects of mixtures of chemicals. 1987, New York): %Antibiotic & Comp(x1,x2)=%Antibiotic(x1)+%Comp(x2)−%Antibiotic(x1)·%Comp(x2)
Here, x1 and x2 are the concentrations of antibiotic (tetracycline or chloramphenicol) and library/compound (Comp) tested, respectively. This equation can be rearranged to model the effective percent activity (EC) of the antibiotic alone, after accounting for compound activity:
[formula] Thus, the model-adjusted checkerboards show the antibiotic activity post-potentiation, and from that one can determine the true change in MIC.

P. aeruginosa = assay: Bactericidal assessment with tetracycline; format: cell-based
Method: (§1) Lead agents were screened for bactericidal activity as described previously (Van Horn, et al. J. Med. Chem. 2014, 57, 3075-3093; […], et al. J. Med. Chem. 2015, 58, 3340-3355), with the following modifications. […] Biofilm experiments were performed similar to those described previously ([…], et al. J. Med. Chem. 2015, 58, 3340-3355; von Salm, et al. Org. Lett. 2016, 18, 2596-2599), with the following modifications.

P. aeruginosa biofilm = assay: Pre-formed biofilm viability assessment with tetracycline; format: cell-based; conditions: for biofilm cells recovered, EPI alone: 25 μg mL^−1 (MPC), no tetracycline;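 for biofilm recovery, combination treatment: percent recovery versus no treatment controls after 20 Hours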
Method: as §1

Hek293T cells = assay: MTT cytotoxicity assay; format: cell-based, human; conditions: 25 μg mL^−1, 48 hours
Method: (§2) To assess toxicity of polyamine compounds we used HepG2 human liver carcinoma cells and Hek293T human embryonic kidney epithelial cells. […] J. Med. Chem. 2015, 58, 3340-3355). […] Cells were then incubated for 48 hours at 37° C. with 5% CO2. Following this, viability was assessed by the addition of MTT and measuring the OD570 in a Biotek plate reader. Percent recovery was determined compared to no drug controls.

HepG2 cells = assay: MTT cytotoxicity assay; format: cell-based, human; conditions: 25 μg mL^−1 (highest concentration tested), 48 hours
Method: as §2

P. aeruginosa cells = assay: Bacterial membrane depolarization (DiSC3 dye); format: cell-based; conditions: 25 μg mL^−1
Method: To determine the level of membrane depolarization by polyamine compounds a 3,3′-dipropylthiadicarbocyanine Iodide (DiSC3) fluorescence dye was used. Exponentially growing cultures were prepared as described above, before being harvested by centrifugation. Cells were next washed in buffer A (5 mM HEPES pH 7.2, 5 mM glucose) and resuspended to an OD600 of 0.2 in the same buffer containing 100 mM KCl and 2 μM DiSC3. Samples were allowed to equilibrate for 15 minutes at room temperature to ensure uptake and quenching of the dye in bacterial membranes. Cells were aliquoted into 96-well plates and polyamines were added alongside the known efflux inhibitor PAN (all at 25 μg mL^−1). Nisin (25 μg mL^−1) was used as a positive control to display depolarization effects. A Biotek plate reader was used to monitor fluorescence of wells, with a 622 nm excitation and 670 nm emission. For graphical representation, the maximum relative fluorescence at 2 minutes was used for comparison of lead agents to controls.

[2] = 12 μM tetracycline + MPC of EPI
[3] = 50 μM tetracycline + MPC of EPI
[4] = 25 μM tetracycline + MPC of EPI

| Compound | FP* (Fold Potentiation, EC50) [1] [fold] | FP^# (Fold Potentiation, EC90) [1] [fold] | FP*^c (Fold Potentiation, EC50) [1] | FP^#c (Fold Potentiation, EC90) [1] [fold] | TPI (inhibitory concentration of the polyamines alone to produce EC values) [1] [µg/mL] | percent recovery of Hek293T cells compared to solvent only controls (Hek293T cells) [%] | percent recovery, combination treatment (P. aeruginosa; [2]) [%] | percent recovery, combination treatment (P. aeruginosa; [3]) [%] | biofilm recovery, combination treatment (P. aeruginosa biofilm; [4]) [%] | biofilm cells recovered, EPI alone (P. aeruginosa biofilm) [%] | biofilm recovery, combination treatment (P. aeruginosa biofilm; [3]) [%] | HepG2 cell viability / recovery (HepG2 cells) [%] | change in DiSC3 fluorescence (membrane depolarization) (P. aeruginosa cells) | also measured |
| --- | --- | --- | --- | --- | --- | --- | --- | --- | --- | --- | --- | --- | --- | --- |
| CN(C)[C@@H]1C(O)=C(C(N)=O)C(=O)[C@@]2(O)C(O)=C3C(=O)c4c(O)cccc4[C@@](C)(O)[C@H]3C[C@@H]12 [tetracycline, reference compound] | – | – | – | – | – | – | – | – | – | – | – | – | – | EC50 ([1]; Pseudomonas aeruginosa, no EPI, average across all replicates, read-out: tetracycline alone EC50): 47.8 µM; EC90 ([1]; no library or EPI, average across all replicates, read-out: tetracycline alone EC90): 82.5 µM; less recovery on increasing tetracycline alone (P. aeruginosa; from 12 μM to 25 μM): 17.8%; bacterial recovery, tetracycline alone (P. aeruginosa; tetracycline 12 μM): 53%; bacterial recovery, tetracycline alone (P. aeruginosa; tetracycline 25 μM): 35%; bacterial recovery, tetracycline alone (P. aeruginosa; tetracycline 50 μM): 1%; more biofilm eradication on increasing tetracycline by itself (P. aeruginosa biofilm; from 12 μM to 25 μM): 4%; biofilm cells recovered, tetracycline alone (P. aeruginosa biofilm; tetracycline 50 μM): 9% |
| CNCCCC[C@@H](CN)NC[C@H](Cc1ccccc1)NCCc1ccccc1 [TPI 247, (S)—N6-methyl-N2—((S)-2-(phenethylamino)-3-phenylpropyl)hexane-1,2,6-triamine] | 5 | 7.5 | 5 fold and 5.0 fold | 8.3 | >25 | 84 | 2.9 | 0.04 | 0.6 | 99.99 | 0.2 | – | – | – |
| NCC[C@@H](CN)NC[C@H](Cc1ccccc1)NCCc1ccccc1 [TPI 250, (S)—N^2—((S)-2-(phenethylamino)-3-phenylpropyl)butane-1,2,4-triamine] | 7 | 7.8 | 7.0 fold | 7.8 | >25 | – | 2.2 | 0.01 | 1 | 99.99 | 0.5 | 80 | – | biofilm recovery, combination treatment (P. aeruginosa biofilm; [2]): 21%; improvement of tetracycline alone biofilm eradication (P. aeruginosa biofilm; [2]): 67% |
| COC(=O)[C@H]1[C@H]2C[C@@H]3c4[nH]c5cc(OC)ccc5c4CCN3C[C@H]2C[C@@H](OC(=O)c2cc(OC)c(OC)c(OC)c2)[C@@H]1OC [Reserpine, reference compound] | – | – | – | 1 | – | – | – | – | – | – | – | – | – | – |
| O=C(N[C@H](CO)[C@H](O)c1ccc([N+](=O)[O-])cc1)C(Cl)Cl [chloramphenicol] | – | – | – | – | – | – | – | – | – | – | – | – | decreased in florescence | – |
| phenylalanine arginine beta naphthalamide [PAβN, reference compound] | – | – | 65.5 fold | 8 | – | 63 | 0.79 | 0.02 | 7 | – | 1 | 68 | strong increase in fluorescence | TPL (inhibitory concentration of the Torrey Pines Library alone to produce an EC90 value) [1]: >25 µg/mL; FP (Fold Potentiation, EC90) ([1]; EC90 tetracycline with no TPL/EC90 tetracycline with TPL, 25 μg mL−1 library): 8.01 fold; EPI*^a (inhibitory concentration of the individual Efflux Pump Inhibitor alone) ([1]; EPI alone, 50% effective concentration): >25 µg/mL; percent recovery, combination treatment (P. aeruginosa; [4]): 0.2%; bacterial recovery (viability), EPI alone (P. aeruginosa; 25 μg mL^−1, no tetracycline): 76% |
| NCCC[C@H](CN)NC[C@H](Cc1ccccc1)NCCc1ccccc1 [TPI 271, (R)—N^2—((S)-2-(phenethylamino)-3-phenylpropyl)pentane-1,2,5-triamine] | 8.2 | 8.5 | 8.2 fold | 8.5 | >25 | 75 | 2 | 0.02 | 0.5 | 99.99 | 0.2 | 74 | – | – |
| NCCC[C@@H](CN[C@H](CN)Cc1ccccc1)NCCc1ccccc1 [TPI 314, (S)—N^1—((S)-1-amino-3-phenylpropan-2-yl)-N^2-phenethylpentane-1,2,5-triamine] | 5 | 7.5 | 5 fold and 5.0 fold | 7.5 | >25 | – | 5.3 | 0.01 | 1 | 99.99 | 0.6 | 77 | – | – |
| nisin | – | – | – | – | – | – | – | – | – | – | – | – | strong increase in fluorescence | – |
